Holding throughout (experiment): relative viability (nuclei count vs DMSO), 5 days (fraction); higher = more cells survive
Compound in experiment [1]: C=CC(=O)N1CCC[C@@H](n2nc(-c3ccc(Oc4ccccc4)cc3)c3c(N)ncnc32)C1 [Ibrutinib] + CC(=O)Nc1cccc(-n2c(=O)n(C3CC3)c(=O)c3c(Nc4ccc(I)cc4F)n(C)c(=O)c(C)c32)c1 [Trametinib] (partner 0.02 µM)
Summed up: (§1)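 Cells from lung cancer lines were seeded into 1536-well plates and, one day later, dosed by pin tool. Treatments were either a single drug or a fixed dose of an anchor drug with five library-drug doses (not always all listed) in √10 steps. After 5 days, nuclei were stained in a one-step fixation (final 0.05% Triton X-100, 1% formaldehyde, 1 ug/ml Hoechst) and counted on 4× images, and relative viability is the treated-to-vehicle nuclei ratio, as the median of duplicate plates.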

Compound in experiment [2]: C=CCc1cccc(/C=N/NC(=O)CN2CCN(Cc3ccccc3)CC2)c1O [PAC-1] + COc1cc2c(Oc3ccc(NC(=O)C4(C(=O)Nc5ccc(F)cc5)CC4)cc3F)ccnc2cc1OCCCN1CCOCC1 [Foretinib] (partner 0.25 µM)
Summed up: as §1

Compound in experiment [3]: C=CCc1cccc(/C=N/NC(=O)CN2CCN(Cc3ccccc3)CC2)c1O [PAC-1] + Cc1nc(NC(=O)N2CCC[C@H]2C(N)=O)sc1-c1ccnc(C(C)(C)C(F)(F)F)c1 [Alpelisib] (partner 2 µM)
An outline of the steps:
as §1

Compound in experiment [4]: C=CCc1cccc(/C=N/NC(=O)CN2CCN(Cc3ccccc3)CC2)c1O [PAC-1] + Nc1ncn([C@H]2C[C@H](O)[C@@H](CO)O2)c(=O)n1 [Decitabine] (partner 2 µM)
An outline of the steps:
as §1

Take SK-MES-1: the relative viability in experiment [1] (first compound 0.005 µM) amounted to 0.591; in experiment [1] (first compound 0.01581 µM), 0.467; in experiment [1] (first compound 0.05 µM) it was 0.36; in experiment [1] (first compound 0.1581 µM) it was 0.611; in experiment [1] (first compound 0.5 µM), 0.297; in experiment [2] (first compound 0.02 µM) it was 0.816. For the same cell line, the relative viability in experiment [2] (first compound 0.06325 µM) is 1.03; in experiment [2] (first compound 0.2 µM), 0.851; in experiment [2] (first compound 2 µM) it was 0.943; in experiment [3] (first compound 0.02 µM), 0.845; in experiment [3] (first compound 0.06325 µM), 0.908; in experiment [3] (first compound 0.2 µM), 0.878. Also, the relative viability in experiment [3] (first compound 2 µM) worked out at 0.955; in experiment [4] (first compound 0.02 µM), 0.432; in experiment [4] (first compound 0.06325 µM), 0.389; in experiment [4] (first compound 0.2 µM), 0.325; in experiment [4] (first compound 2 µM), 0.322.

The values are drawn from the supplement of paper PMC10307832.
